Data reported in the NIST ThermoML archive (doi:10.1016/j.jct.2008.06.017).

Tests used:
[1] = xn = mol fraction of the nth substance listed; conditions: Liquid, Vibrating tube method
[2] = Liquid, Vibrating tube method

COC(=O)OC [dimethyl carbonate] + C=CCOC(=O)C(=C)C
[1], x1 = 1
Conditions	mass density [kg/m3]
293.15 K	1069.79
303.15 K	1056.75
313.15 K	1043.37

C=COC(C)=O [vinyl acetate]
[2]
Conditions	mass density [kg/m3]
293.15 K	931.95
303.15 K	919.089
313.15 K	906.116

C=Cc1ccccc1 [styrene]
[2]
Conditions	mass density [kg/m3]
293.15 K	906.26
303.15 K	897.392
313.15 K	888.472

C=CCOC(=O)C(=C)C [2-propenyl 2-methylpropenoate]
[2]
Conditions	mass density [kg/m3]
293.15 K	932.965
303.15 K	922.525
313.15 K	912.072

C=C(C)C(=O)OCCCC [butyl 2-methyl-2-propenoate]
[2]
Conditions	mass density [kg/m3]
293.15 K	895.231
303.15 K	885.991
313.15 K	876.19

COC(=O)OC [dimethyl carbonate] + C=COC(C)=O
[1], x1 = 1
Conditions	mass density [kg/m3]
293.15 K	1069.79
303.15 K	1056.75
313.15 K	1043.37

COC(=O)OC [dimethyl carbonate] + C=Cc1ccccc1
[1], x1 = 1
Conditions	mass density [kg/m3]
293.15 K	1069.79
303.15 K	1056.75
313.15 K	1043.37

C=COC(C)=O [vinyl acetate] + COC(=O)OC
[1]
Conditions	mass density [kg/m3]
293.15 K, x2 = 0	931.95
293.15 K, x2 = 0.025	935.258
293.15 K, x2 = 0.0504	938.581
293.15 K, x2 = 0.1002	945.231
293.15 K, x2 = 0.1537	952.421
293.15 K, x2 = 0.1999	958.65
293.15 K, x2 = 0.25	965.315
293.15 K, x2 = 0.3001	972.123
293.15 K, x2 = 0.3498	978.865
293.15 K, x2 = 0.4002	985.701
293.15 K, x2 = 0.4503	992.611
293.15 K, x2 = 0.5	999.443
293.15 K, x2 = 0.5502	1006.39
293.15 K, x2 = 0.6001	1013.38
293.15 K, x2 = 0.6495	1020.26
293.15 K, x2 = 0.6934	1026.46
293.15 K, x2 = 0.7501	1034.48
293.15 K, x2 = 0.7971	1041.1
293.15 K, x2 = 0.8499	1048.6
293.15 K, x2 = 0.9002	1055.59
293.15 K, x2 = 0.9493	1062.61
293.15 K, x2 = 0.975	1066.22
303.15 K, x2 = 0	919.089
303.15 K, x2 = 0.025	922.4
303.15 K, x2 = 0.0501	925.708
303.15 K, x2 = 0.0999	932.33
303.15 K, x2 = 0.15	939.009
303.15 K, x2 = 0.1998	945.689
303.15 K, x2 = 0.2499	952.431
303.15 K, x2 = 0.3004	959.251
303.15 K, x2 = 0.35	965.996
303.15 K, x2 = 0.4003	972.857
303.15 K, x2 = 0.4488	979.518
303.15 K, x2 = 0.4999	986.544
303.15 K, x2 = 0.5496	993.403
303.15 K, x2 = 0.6	1000.41
303.15 K, x2 = 0.6489	1007.22
303.15 K, x2 = 0.6986	1014.13
303.15 K, x2 = 0.7494	1021.26
303.15 K, x2 = 0.8	1028.36
303.15 K, x2 = 0.8496	1035.38
303.15 K, x2 = 0.8999	1042.51
303.15 K, x2 = 0.9496	1049.56
303.15 K, x2 = 0.9753	1053.22
313.15 K, x2 = 0	906.116
313.15 K, x2 = 0.0248	909.387
313.15 K, x2 = 0.0501	912.718
313.15 K, x2 = 0.1003	919.392
313.15 K, x2 = 0.1499	925.976
313.15 K, x2 = 0.2001	932.73
313.15 K, x2 = 0.25	939.446
313.15 K, x2 = 0.2999	946.16
313.15 K, x2 = 0.3502	953.002
313.15 K, x2 = 0.3999	959.753
313.15 K, x2 = 0.45	966.575
313.15 K, x2 = 0.4996	973.402
313.15 K, x2 = 0.5501	980.351
313.15 K, x2 = 0.5998	987.189
313.15 K, x2 = 0.6502	994.195
313.15 K, x2 = 0.7	1001.12
313.15 K, x2 = 0.7501	1008.14
313.15 K, x2 = 0.7999	1015.14
313.15 K, x2 = 0.8499	1022.15
313.15 K, x2 = 0.8995	1029.12
313.15 K, x2 = 0.9501	1036.31
313.15 K, x2 = 0.9746	1039.75

C=Cc1ccccc1 [styrene] + COC(=O)OC
[1]
Conditions	mass density [kg/m3]
293.15 K, x2 = 0	906.26
293.15 K, x2 = 0.0246	909.146
293.15 K, x2 = 0.0498	912.112
293.15 K, x2 = 0.1006	918.267
293.15 K, x2 = 0.1506	924.493
293.15 K, x2 = 0.2004	930.891
293.15 K, x2 = 0.2506	937.533
293.15 K, x2 = 0.3008	944.38
293.15 K, x2 = 0.3498	951.272
293.15 K, x2 = 0.4007	958.655
293.15 K, x2 = 0.4498	966.048
293.15 K, x2 = 0.5001	973.84
293.15 K, x2 = 0.5499	981.838
293.15 K, x2 = 0.5996	990.075
293.15 K, x2 = 0.6507	998.871
293.15 K, x2 = 0.7001	1007.72
293.15 K, x2 = 0.7496	1016.93
293.15 K, x2 = 0.7997	1026.61
293.15 K, x2 = 0.8501	1036.78
293.15 K, x2 = 0.9001	1047.29
293.15 K, x2 = 0.9499	1058.27
293.15 K, x2 = 0.9747	1063.93
303.15 K, x2 = 0	897.392
303.15 K, x2 = 0.0262	900.37
303.15 K, x2 = 0.0502	903.146
303.15 K, x2 = 0.1004	909.105
303.15 K, x2 = 0.1506	915.204
303.15 K, x2 = 0.2005	921.462
303.15 K, x2 = 0.2502	927.883
303.15 K, x2 = 0.3001	934.514
303.15 K, x2 = 0.3502	941.367
303.15 K, x2 = 0.4	948.407
303.15 K, x2 = 0.45	955.705
303.15 K, x2 = 0.5003	963.262
303.15 K, x2 = 0.5498	971.001
303.15 K, x2 = 0.5998	979.074
303.15 K, x2 = 0.6497	987.452
303.15 K, x2 = 0.7007	996.305
303.15 K, x2 = 0.7502	1005.27
303.15 K, x2 = 0.8002	1014.68
303.15 K, x2 = 0.85	1024.5
303.15 K, x2 = 0.8999	1034.72
303.15 K, x2 = 0.9502	1045.5
303.15 K, x2 = 0.975	1051.05
313.15 K, x2 = 0	888.472
313.15 K, x2 = 0.0256	891.333
313.15 K, x2 = 0.0501	894.082
313.15 K, x2 = 0.0998	899.822
313.15 K, x2 = 0.1514	905.948
313.15 K, x2 = 0.2007	911.977
313.15 K, x2 = 0.2506	918.225
313.15 K, x2 = 0.3008	924.745
313.15 K, x2 = 0.3499	931.26
313.15 K, x2 = 0.4006	938.218
313.15 K, x2 = 0.4501	945.282
313.15 K, x2 = 0.5103	954.115
313.15 K, x2 = 0.5503	960.19
313.15 K, x2 = 0.5995	967.947
313.15 K, x2 = 0.6499	976.16
313.15 K, x2 = 0.6999	984.624
313.15 K, x2 = 0.7503	993.432
313.15 K, x2 = 0.8002	1002.61
313.15 K, x2 = 0.8499	1012.09
313.15 K, x2 = 0.9001	1022.04
313.15 K, x2 = 0.9497	1032.41
313.15 K, x2 = 0.975	1037.84
